# Experimental data reported in PubChem BioAssay AID1963844 (Molecular Pharmacology Branch, DTP, NCI, 2024).
# “And” between values parts separate entries of the source, which are not always exact repeats. Equal entries are not always repeated.
# System: 422866-222-R5-J1-PDC complex spheroid viability
# Test: Anticancer human tumor 422866-222-R5-J1-PDC patient-derived pancreatic adenocarcinoma cell line growth inhibition [POLQ]
# Settings: for viability, T/C: stronger effect = lower value
# Protocol: Multicellular complex tumor spheroid response to Polymerase (POL) inhibitors (novobiocin, ART-558, RP6685) in combination with a variety of drugs and investigational agents in selected tumor cell lines
# The POL inhibitors (novobiocin, ART-558, and RP6685) were evaluated both individually and in combination with standard of care and investigational anticancer small molecules within a complex spheroid model of solid tumors. . Complex spheroids include a stromal component modeled by human endothelial cells (HUVEC) and fibroblasts modeled by human mesenchymal stem cells (MSCs). The concentration ranges selected for each drug and investigational agent were based upon clinically achievable concentrations if the clinical Cmax of the agent was known.
# Compounds. The drugs and investigational agents: novobiocin (NSC847541), ART-558 (NSC835418), RP-6685 (NSC848927), peposertib (NSC802822), ceralasertib (NSC780249), elimusertib (NSC800525), camonsertib (NSC841442), AZD-1390 (NSC803789), olaparib (NSC753686), talazoparib (NSC767125), rucaparib (NSC756644), sotorasib (NSC818433), MRTX-1133 (NSC836407), SN-38 (NSC673596), topotecan (NSC609699), epotoside (NSC141540), doxorubicin (NSC123127), gemcitabine (NSC613327), 5-fluorouracil (NSC19893), paclitaxel (NSC125973), vemurafenib (NSC761431), MSA-2 (NSC828583), SN-011 (NSC837082), adavosertib (NSC754352), prexasertib (NSC758257), carboplatin (NSC241240) and oxaliplatin (NSC266046), were obtained from the National Cancer Institute (NCI) Developmental Therapeutics Program Chemical Repository (21). The FDA-approved anticancer drug set is available from the Developmental Therapeutics Program at https://dtp.cancer.gov/organization/dscb/obtaining/. […] The stock solutions were prepared in dimethyl sulfoxide (DMSO, Sigma-Aldrich, St. Louis, MO, cat. D2650), except for the platinum compounds which were prepared in saline (Quality Biological, Gaithersburg, MD, cat. 114-055-101), at 800-fold the tested concentration and stored at -70 degrees C prior to their use. All drugs and investigational agents were tested over a range starting from a high concentration at or near the clinical Cmax and decreasing in half-log increments. If the clinical Cmax for an agent had not been determined, the highest concentration tested was 10 microM, except for SN-38, which was tested at a high concentration of 1 microM.
# Cell Culture. All cells were maintained in an incubator at 37 degrees C and 5% CO2 with 95% humidity. The PDC lines were cultured according to standard operating procedures established by the NCI PDMR (https://pdmr.cancer.gov). Table 3 of the manuscript, lists the cell lines along with the number of the three cell types plated to form the mct-spheroids and media for tumor cell growth. After thawing, all PDC lines, except 997537-175-T-J1-PDC and 415267-285-R-J2-PDC, were cultured in Matrigel-coated flasks prepared with a working solution of 1X Ham's F-12 nutrient mix, without supplementation (Thermo Fisher Scientific, cat. 11765054), 100 U/mL penicillin-streptomycin (Thermo Fisher Scientific, cat. 15140122), and 2.5% Matrigel (Corning Inc., Corning, NY, cat. 354248) for the first three passages. The two PDC lines 997537-175-T-J1-PDC and 415267-285-R-J2-PDC were cultured on uncoated flasks. The 857933-349-R-J2-PDC line was cultured in 6C/Colon 1B media containing advanced DMEM/F-12 (Thermo Fisher Scientific, cat. 12634028), 10 mM HEPES (Thermo Fisher Scientific, cat. 15630080), 1X GlutaMAX supplement (Thermo Fisher Scientific, cat. 35050061), 0.1 mg/mL primocin (InvivoGen, San Diego, CA, cat. ant-pm-2), 10% defined fetal bovine serum, heat inactivated (HyClone Laboratories Inc., Logan, UT, cat. SH30070.03HI), 50% L-WRN conditioned media (ATCC, cat. CRL-3276), 1.25 mM N-Acetyl-L-cysteine (Sigma-Aldrich, cat. A9165), 10 mM nicotinamide (Sigma-Aldrich, cat. N0636), 1X B-27 supplement (Thermo Fisher Scientific, cat. 17504044), 1X N-2 supplement (Thermo Fisher Scientific, cat. […]
# 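Also: spheroids exposed to compounds for one week before readout.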
# 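For viability, T/C in this document: percent of DMSO vehicle wells luminescence so 100% = untreated viability.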
compound,measurement,setting,value
COc1cc2cc(C(=O)CCC(=O)O)sc2cc1OC,"viability, T/C",compound 0.0316 µM,106% and 85.3% and 94.7%
same,"viability, T/C",compound 0.1 µM,99.5% and 89.1% and 83%
same,"viability, T/C",compound 0.316 µM,107% and 91% and 88%
same,"viability, T/C",compound 3.16 µM,98.6% and 97.3% and 98%
same,IC50,curve of compound,> 10 µM
COc1cccc2c1C(=O)c1c(O)c3c(c(O)c1C2=O)CC(O)(C(=O)CO)CC3OC1CC(N)C(O)C(C)O1 (stereo not given),"viability, T/C",compound 0.0316 µM,70.1% and 56.7% and 69%
same,"viability, T/C",compound 0.316 µM,36.8% and 26.5% and 35.3%
same,"viability, T/C",compound 1 µM,34.3% and 23.3% and 26.8%
same,"viability, T/C",compound 3.16 µM,30.2% and 28.3% and 28.6%
same,"viability, T/C",compound 10 µM,33.7% and 25.8% and 38.8%
same,IC50,curve of compound,0.106 µM and 0.0688 µM and 0.221 µM
COc1ccc([C@@H](O)c2cc(-c3ncnc4cc(N5CCOCC5)ccc34)c(F)cc2Cl)nn1,"viability, T/C",compound 0.0316 µM,80.3% and 87.1% and 99.6%
same,"viability, T/C",compound 0.1 µM,84.6% and 77% and 79.5%
same,"viability, T/C",compound 0.316 µM,76.6% and 85.4% and 75.6%
same,"viability, T/C",compound 1 µM,62.4% and 59% and 67.8%
same,"viability, T/C",compound 3.16 µM,43.3% and 51.7% and 45.8%
same,"viability, T/C",compound 10 µM,35.5% and 35.1% and 37.1%
same,IC50,curve of compound,2.1 µM and 2.82 µM and 3.02 µM
CCc1cc2c(N3CCc4c(cc(Cn5ccnc5)cc4-c4cn(C)nc4C(F)(F)F)C3=O)ccnc2c(OC)n1,"viability, T/C",compound 0.0316 µM,93.7% and 75.7% and 82.9%
same,"viability, T/C",compound 0.1 µM,81% and 78.8% and 84.5%
same,"viability, T/C",compound 0.316 µM,89.8% and 81.5% and 92.5%
same,"viability, T/C",compound 1 µM,117% and 113% and 99.8%
same,"viability, T/C",compound 3.16 µM,129% and 108% and 106%
same,"viability, T/C",compound 10 µM,108% and 87.1% and 92.4%
same,IC50,curve of compound,> 10 µM
C=CC(=O)N1CCN(c2nc(=O)n(-c3c(C)ccnc3C(C)C)c3nc(-c4c(O)cccc4F)c(F)cc23)C(C)C1 (stereo not given),"viability, T/C",compound 0.0316 µM,30.6% and 30.5% and 34.5%
same,"viability, T/C",compound 0.1 µM,23.7% and 28.7% and 31.4%
same,"viability, T/C",compound 0.316 µM,24.4% and 29.1% and 24.3%
same,"viability, T/C",compound 1 µM,23.3% and 29.6% and 26.2%
same,"viability, T/C",compound 3.16 µM,25.1% and 22.9% and 26.6%
same,"viability, T/C",compound 10 µM,28.1% and 23.5% and 24.2%
same,IC50,curve of compound,< 0.0316 µM
CNCc1ccc(-c2[nH]c3cc(F)cc4c3c2CCNC4=O)cc1 + Cc1cccc(N(C)C(=O)C2C(O)CCN2c2nc(C)cc(C(F)(F)F)c2C#N)c1,IC50,"curve of first compound, second compound 0.0316 µM",> 10 µM
same,IC50,"curve of first compound, second compound 0.1 µM",> 10 µM
same,IC50,"curve of first compound, second compound 0.316 µM",> 10 µM
same,IC50,"curve of first compound, second compound 1 µM",> 10 µM
same,IC50,"curve of first compound, second compound 3.16 µM",> 10 µM
same,IC50,"curve of first compound, second compound 10 µM",> 10 µM
same,"viability, T/C","second compound 0.0316 µM, first compound 0.0316 µM",105%
same,"viability, T/C","second compound 0.0316 µM, first compound 0.1 µM",88.9%
same,"viability, T/C","second compound 0.0316 µM, first compound 0.316 µM",91.2%
same,"viability, T/C","second compound 0.0316 µM, first compound 1 µM",99.3%
same,"viability, T/C","second compound 0.0316 µM, first compound 3.16 µM",89.6%
same,"viability, T/C","second compound 0.0316 µM, first compound 10 µM",85.5%
same,"viability, T/C","second compound 0.1 µM, first compound 0.0316 µM",94.8%
same,"viability, T/C","second compound 0.1 µM, first compound 0.1 µM",86.7%
same,"viability, T/C","second compound 0.1 µM, first compound 0.316 µM",85.6%
same,"viability, T/C","second compound 0.1 µM, first compound 1 µM",86%
same,"viability, T/C","second compound 0.1 µM, first compound 3.16 µM",101%
same,"viability, T/C","second compound 0.1 µM, first compound 10 µM",108%
same,"viability, T/C","second compound 0.316 µM, first compound 0.0316 µM",88.3%
same,"viability, T/C","second compound 0.316 µM, first compound 0.1 µM",97.1%
same,"viability, T/C","second compound 0.316 µM, first compound 0.316 µM",88%
same,"viability, T/C","second compound 0.316 µM, first compound 1 µM",85%
same,"viability, T/C","second compound 0.316 µM, first compound 3.16 µM",80.9%
same,"viability, T/C","second compound 0.316 µM, first compound 10 µM",89.6%
same,"viability, T/C","second compound 1 µM, first compound 0.0316 µM",103%
same,"viability, T/C","second compound 1 µM, first compound 0.1 µM",85.6%
same,"viability, T/C","second compound 1 µM, first compound 0.316 µM",93.3%
same,"viability, T/C","second compound 1 µM, first compound 1 µM",85.3%
same,"viability, T/C","second compound 1 µM, first compound 3.16 µM",86.7%
same,"viability, T/C","second compound 1 µM, first compound 10 µM",89.7%
same,"viability, T/C","second compound 3.16 µM, first compound 0.0316 µM",96.4%
same,"viability, T/C","second compound 3.16 µM, first compound 0.1 µM",83.9%
same,"viability, T/C","second compound 3.16 µM, first compound 0.316 µM",87.6%
same,"viability, T/C","second compound 3.16 µM, first compound 1 µM",80.8%
same,"viability, T/C","second compound 3.16 µM, first compound 3.16 µM",79.8%
same,"viability, T/C","second compound 3.16 µM, first compound 10 µM",87.3%
same,"viability, T/C","second compound 10 µM, first compound 0.0316 µM",102%
same,"viability, T/C","second compound 10 µM, first compound 0.1 µM",107%
same,"viability, T/C","second compound 10 µM, first compound 0.316 µM",88%
same,"viability, T/C","second compound 10 µM, first compound 1 µM",76.6%
same,"viability, T/C","second compound 10 µM, first compound 3.16 µM",85.8%
same,"viability, T/C","second compound 10 µM, first compound 10 µM",67.1%
CNCc1ccc(-c2[nH]c3cc(F)cc4c3c2CCNC4=O)cc1,"viability, T/C",compound 0.0316 µM,88% and 95% and 99.8%
same,"viability, T/C",compound 0.1 µM,89.3% and 83.7% and 99.7%
same,"viability, T/C",compound 1 µM,90.7% and 102% and 101%
same,"viability, T/C",compound 3.16 µM,77.7% and 90.4% and 86.5%
same,"viability, T/C",compound 10 µM,94.5% and 76.6% and 86.3%
same,IC50,curve of compound,> 10 µM
Cc1cccc(N(C)C(=O)C2C(O)CCN2c2nc(C)cc(C(F)(F)F)c2C#N)c1 (stereo not given),"viability, T/C",compound 0.1 µM,93.7% [middle of 13 runs]
same,"viability, T/C",compound 0.316 µM,94.8% [middle of 13 runs]
same,"viability, T/C",compound 10 µM,99.8% [middle of 13 runs]
same,IC50,"compound alone, run of 11/27/2023",> 10 µM
same,IC50,"compound alone, run of 12/05/2023",> 10 µM
